Test results published in patent US20150140015A1, “METHODS AND PHARMACEUTICAL COMPOSITIONS FOR THE TREATMENT OF PANCREATIC CANCER” (INSERM (Institut National de la Sante et de la Recherche …, priority 2013, published 2015).
Entries after “also recorded” stand apart in the source; their conditions may differ.

Experiments:
parental HPAF-II cells = assay: Quantification of apoptotic cells by annexin V-PE labeling in parental HPAF-II cells; type: cell-based, human; settings: 1 μM orexin-A
Experimental: FIGS. 5A and B. Effect of orexin-A on apoptosis in OX1R expressing recombinant OX1R/HPAF-II cells. A, Parental HPAF-II and recombinant OX1R/HPAF-II cells were challenged with (black bars) or without (white bars) 1 μM orexin-A for 48 hr in the absence or presence of the SHP-2 protein tyrosine phosphatase inhibitor, NSC-87877 (50 μM). Apoptosis was measured by determination of annexin V-PE binding. Results are expressed as the percentage of apoptotic cells, and are the means±SE of three separate experiments. ***p<0.001; ns, non-significant; B, paraformaldehyde-fixed HPAF-II cells and recombinant OX1R/HPAF-II cells were challenged with or without (Basal) 1 μM orexin-A for 48 hr. Indirect immunostaining of activated caspase-3 in parental HPAF-II cells (left panels) and recombinant OX1R/HPAF-II cells (right panels) in the presence (bottom panels) or tabsence (top panels) of orexin-A is illustrated in B.
AsPC-1, SW 1990, HPAF-II and HPAF-II/hOX1R cells (seeded at 5×10^4 cells/well) were grown in 24-well plates for 24 hr under the culture conditions described above. The culture medium was then replaced every 24 hr with fresh medium with or without orexin-A (GL Biochemicals) at a concentration of 1 μM in the presence or absence of the SHP-2 inhibitor, NSC-87877 (50 μM) (Calbiochem, VWR International SAS, France). At the end of the treatment (48 hr), apoptotic cells were determined using the Guava Nexin™ kit (Guava Technologies, Hayward, Calif., USA), which discriminates between apoptotic and non-apoptotic cells (Rouet-Benzineb P, Rouyer-Fessard C, Jarry A, et al. Orexins Acting at Native OX1 Receptor in Colon Cancer and Neuroblastoma Cells or at Recombinant OX1 Receptor Suppress Cell Growth by Inducing Apoptosis. J Biol Chem 2004; 279:45875-86), analyzed with the Guava Personal Cell Analysis (PCA) system (Merck-Millipore, Guyancourt, France), and counted (2,000 events) (Voisin et al, 2008, as above). Results are expressed as the percentage of apoptotic phycoerythrin-labelled Annexin V (Annexin V-PE) positive cells and are the means of 3 independent analyses.

[1] = test system: AsPC-1 cells xenografted in nude mice; assay: Tumorigenicity assay: AsPC-1 cells xenografted in nude mice; type: in vivo; settings: for decrease of tumor volume: 30-day treatment; for activated caspase-3 immunostaining in xenografted AsPC-1 tumors: orexin-A 1 μmoles/Kg daily i.p., 30 days
Experimental: FIGS. 6A and B. Effect of daily inoculation of orexin-A on the growth of tumors developed by xenografting human PDCA cells in nude mice. AsPC-1 cells were inoculated in the flank of nude mice at day 0. Mice were injected daily intraperitoneally with 100 μl of orexin-A solutions starting at day 0 (◯) or day 14 (▴) or with 100 μl of PBS ([…]) for controls. A, the daily treatment corresponded to 1 μmoles of orexin-A/Kg. Inset represents the tumor weight measured at the end of the experiment after the mice were sacrificed; B, mice received 0.01, 0.1, 1 or 10 μmoles of orexin-A/kg. After 30 days of treatment, mice were sacrificed and tumor volume and weight were then recorded. The development of tumors was followed by caliper measurement. Data are the means±SE of 6 tumors in each group. *** p<0.01 versus control.
FIG. 7A-F. Indirect immunostaining of activated caspase-3 in xenografted AsPC-1 tumors resected from nude mice. Paraformaldehyde-fixed xenografted AsPC-1 tumors from nude mice treated daily (B, D and F) by intraperitoneal injections with 1 μmoles/Kg orexin-A or not (A, C and E). […] OX1R immunostaining localisation was similar under control and orexin-A treatment conditions.
Control mice received PBS.
After dewaxing, rehydrating tumor paraffin sections, and antigen retrieval by pretreatment with high temperature at pH 9, immunohistochemical procedures were carried out using an automated immunohistochemical stainer according to the manufacturer's guidelines (Bond-Max slide stainer, Menarini, Leica Microsystems). For immunohistochemistry on cell lines, cells in pellets were fixed in formalin, embedded in cell blocks (Shandon Cytoblock; Thermo Scientific; USA) and cut into 3 μm sections. OX1R evaluation was performed in human PDAC, included in TMA, in xenografted tumors and in cell lines (AsPC-1, HPAF-II and HPAF-II/hOX1R). After antigen retrieval, 3 μm cells or tissue sections were incubated for 30 minutes with a polyclonal anti-OX1R antibody (My Bio Source; polyclonal goat; 1/300), rinsed, and then incubated with a biotinylated secondary rabbit anti-goat antibody (Vector BA-500; 1/400). Sections were rinsed and incubated with Streptavidin (TrekAvidin-HRP; Biocare Medical) and DAB ultraview detection kit (Bond Polymer Refine detection; DS9800; Leica Microsystems). Substitution of the primary antibody with PBS was used as a negative control. OX1R immunostaining was evaluated by two investigators (TV and AC) by calculating a score (0-300) obtained by multiplying the intensity (negative, 0; weak, 1; moderate, 2; and strong, 3) by the percentage of stained cells. The pattern of expression (cytoplasmic, membranous, and nuclear) was also recorded, and a mean score was calculated for each tumor. Internal positive controls consisted of normal pancreatic islets while the HEK/hOX1R cell line served as an external positive control. Specificity of the immunostaining was verified by incubation of OX1R antibody with its homologous immunogenic peptide or omission of the primary antibody. Apoptosis determination was performed in tumor cell lines (AsPC-1, HPAF-II and HPAF-II/hOX1R) and resected xenografts, treated or not with orexin-A. Three μm cell sections were immunolabelled for activated caspase-3 after antigen retrieval (ABGENT; cleaved caspase 3; polyclonal rabbit; 1/100) using a detection kit (Bond Polymer Refine detection; DS9800; Leica Microsystems). Substitution of the primary antibody with PBS was used as a negative control. External positive controls consisted of normal lymph nodes. Cleaved caspase-3 immunostaining was determined by calculating the percentage of tumor cells stained in 10 fields of xenografted tumor cells, each field comprising 500 tumor cells.

orexin-A: 33 amino acid hypothalamic neuropeptide, OX1R agonist, SEQ ID NO:2; peptide from GL Biochemicals
induction of apoptosis (parental HPAF-II cells; 48 hr, untransfected parental HPAF-II cells): did not induce apoptosis | annexin-V positive apoptotic cells (parental HPAF-II cells; untransfected cells): 2.1%±0.4 | decrease in tumor volume as compared to untreated mice ([1]; 1 μmol/kg daily i.p. beginning the day cells were xenografted): 48.8% | volume of established tumors ([1]; 1 μmol/kg daily, started 14 days after cell inoculation): rapidly and strongly reduced | weight of tumors, treatment from day 0 versus from day 14 ([1]; 1 μmol/kg daily, tumors resected after sacrifice): No differences | tumoral cell death (Hemalum Eosin Safran staining) ([1]; 1 μmoles/Kg orexin-A daily i.p.): induced tumoral cell death | decrease of tumor volume ([1]; 0.01 moles orexin-A/kg (so in the source)): 34.4% | decrease of tumor volume ([1]; 0.1 moles orexin-A/kg (so in the source)): 30.6% | decrease of tumor volume ([1]; 1 moles orexin-A/kg (so in the source)): 46.7% | decrease of tumor volume ([1]; 10 moles orexin-A/kg (so in the source)): 52.8% | decline of tumor progression ([1]; Example 1, Orexin-A injection): 49% | activated caspase-3 immunostaining in xenografted AsPC-1 tumors [1]: intense staining | activated caspase-3 immunostaining in xenografted AsPC-1 tumors ([1]; listed as Orexin-A): strong immunostaining; also recorded: Induction of apoptosis was observed
